Laboratory results taken from the supplement of paper PMC10307832.

Legend:
Experiment in all cases: relative viability (nuclei count vs DMSO), 5 days (fraction); higher = more cells survive
[1] = compound: CC1=C(C(=NN1)C)CC2=C(C3=C(S2)N(C(=O)N(C3=O)C)CC(C)C)C(=O)N4C[C@@H](CO4)O + Nc1ncn([C@H]2C[C@H](O)[C@@H](CO)O2)c(=O)n1 [Decitabine] (partner 2 µM)
Summary of the method: (§1)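 Lung cancer cell lines were seeded in 1536-well plates and dosed by pin tool the next day, with either a single drug or a fixed anchor-drug dose combined with five library-drug doses (not always all listed) spaced in √10 steps. Five days later, one step fixed the cells and stained their nuclei (final 0.05% Triton X-100, 1% formaldehyde, 1 ug/ml Hoechst), and nuclei were counted on 4× images. Relative viability is the nuclei count in treated wells divided by the count in vehicle wells, and each value is the median of duplicate plates.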

[2] = compound: CC1=C(C(=NN1)C)CC2=C(C3=C(S2)N(C(=O)N(C3=O)C)CC(C)C)C(=O)N4C[C@@H](CO4)O + CCNC(=O)c1noc(-c2cc(C(C)C)c(O)cc2O)c1-c1ccc(CN2CCOCC2)cc1 [Luminespib] (partner 0.01 µM)
Summary of the method: as §1

[3] = compound: CC1=C(C(=NN1)C)CC2=C(C3=C(S2)N(C(=O)N(C3=O)C)CC(C)C)C(=O)N4C[C@@H](CO4)O + N=C(N)NC(=N)NCCc1ccccc1 [Phenformin] (partner 250 µM)
Summary of the method: as §1

IDH-C35 + Linsitinib = compound: Cc1ccccc1C(C(=O)NC1CCCCC1)N(C(=O)Cn1ccnc1C)c1cccc(F)c1 [IDH-C35] + C[C@]1(O)C[C@@H](c2nc(-c3ccc4ccc(-c5ccccc5)nc4c3)c3c(N)nccn32)C1 [Linsitinib] (partner 1 µM)
Summary of the method: as §1

Cell Line	relative viability ([1]; first compound 0.0025 µM)	relative viability ([1]; first compound 0.007906 µM)	relative viability ([1]; first compound 0.025 µM)	relative viability ([1]; first compound 0.07906 µM)	relative viability ([1]; first compound 0.25 µM)	relative viability ([2]; first compound 0.0025 µM)	relative viability ([2]; first compound 0.007906 µM)	relative viability ([2]; first compound 0.025 µM)	relative viability ([2]; first compound 0.07906 µM)	relative viability ([2]; first compound 0.25 µM)	relative viability ([3]; first compound 0.0025 µM)	relative viability ([3]; first compound 0.007906 µM)	relative viability ([3]; first compound 0.025 µM)	relative viability ([3]; first compound 0.07906 µM)	relative viability ([3]; first compound 0.25 µM)	relative viability (IDH-C35 + Linsitinib; first compound 0.08 µM)	relative viability (IDH-C35 + Linsitinib; first compound 0.253 µM)	relative viability (IDH-C35 + Linsitinib; first compound 0.8 µM)	relative viability (IDH-C35 + Linsitinib; first compound 2.53 µM)	relative viability (IDH-C35 + Linsitinib; first compound 8 µM)
COR-L 105	0.574	0.632	0.653	0.644	0.615	0.739	0.807	0.533	0.638	0.617	0.34	0.324	0.231	0.279	0.244	1.01	1.24	0.854	1.01	0.836
NCI-H1355	0.443	0.375	0.346	0.324	0.332	0.836	0.617	0.684	0.778	0.724	0.493	0.473	0.429	0.481	0.453	0.896	0.859	0.848	0.773	0.892
H3255	0.567	0.446	0.568	0.651	0.641	0.953	1.04	0.861	0.944	0.887	0.338	0.368	0.364	0.389	0.39	0.981	0.915	1.01	0.877	0.881
NCI-H1993	0.59	0.523	0.607	0.595	0.536	0.727	0.706	0.765	0.65	0.749	0.495	0.416	0.457	0.433	0.436	0.758	0.776	0.817	0.745	0.798
NCI-H1734	0.561	0.516	0.533	0.451	0.503	0.297	0.184	0.173	0.184	0.167	0.349	0.218	0.168	0.164	0.156	0.891	0.862	0.839	0.772	0.833
HOP-62	0.197	0.218	0.268	0.165	0.279	0.892	1.01	0.809	0.824	0.986	0.649	0.564	0.656	0.624	0.861	1.15	0.803	0.924	–	1.01
LOU-NH91	0.83	0.798	0.839	0.864	0.823	0.371	0.359	0.331	0.363	0.223	0.763	0.752	0.731	0.844	0.733	0.944	0.998	0.968	0.927	0.973
PC-14	0.223	0.27	0.215	0.199	0.275	0.119	0.179	0.286	0.276	0.196	0.548	0.585	0.317	0.586	0.74	0.967	0.939	0.938	0.95	0.862
NCI-H1437	0.532	0.59	0.519	0.612	0.548	1.13	1.14	1.04	1.19	1.16	0.318	0.313	0.301	0.297	0.306	0.998	1.14	0.989	1.14	1.03
NCI-H460	0.512	0.604	0.502	0.494	0.557	0.0312	0.0506	0.037	0.0359	0.028	0.526	0.586	0.491	0.553	0.515	0.909	0.872	0.843	0.749	0.663
NCI-H1666	0.631	0.831	0.74	0.666	0.658	0.991	1	1.06	1.04	1.1	0.571	0.621	0.548	0.538	0.593	0.775	0.79	0.888	0.904	0.941
NCI-H1651	0.519	0.699	0.538	0.579	0.567	0.843	0.762	0.969	0.855	1.09	0.374	0.214	0.259	0.239	0.261	0.918	0.925	0.966	1.02	0.903
NCI-H1755	0.699	0.811	0.742	0.646	0.696	0.592	0.511	0.524	0.356	0.438	0.637	0.607	0.589	0.583	0.622	0.952	0.946	0.984	1.02	0.962
NCI-H661	0.521	0.623	0.546	0.542	0.58	0.877	0.938	0.824	0.913	0.885	0.286	0.304	0.27	0.22	0.277	0.625	0.54	0.51	0.54	0.644
HARA	0.578	0.578	0.653	0.581	0.524	0.847	1.12	0.726	0.543	0.933	0.365	0.378	0.309	0.234	0.246	0.993	0.933	1.04	0.988	0.907
NCI-H596	1.11	1.1	1.1	0.989	1.06	0.991	1.12	0.992	1.03	1.24	0.803	0.764	0.73	0.809	1.05	1.14	1.14	0.986	1.14	1.13
